Consider seven compounds from patent publication US20240002458A1, “NOVEL VHL SMALL MOLECULE PROBES” (St. Jude Children's Research Hospital, priority 2020, published 2024).

Each structure is given as a SMILES string.

Assay [1] has as its target T1, GST-VCB protein complex (Homo sapiens, UniProt P40337). Description: BODIPY FL VH032 (5)-mediated pVHL FP binding assay (competition). The settings on record: for pVHL inhibitory activity in the FP assay: 2.1 pM to 30 μM. The procedure: It was freshly prepared every time before an experiment. […] The FP signals were determined at the 90-min incubation time. […] The FP signals or the FP signal fold changes were plotted with the GraphPad Prism software. […] The FP Ki values were used to compare the relative binding affinities of the test ligands to pVHL.

The target in assay [2] is T1, GST-VCB protein complex. The assay is described as follows: BODIPY FL VH032 (5)-mediated pVHL TR-FRET binding assay (competition). The note with it: for pVHL inhibitory activity in the TR-FRET binding assay: 2.1 pM to 30 μM; for pVHL inhibitory activity in the TR-FRET binding assay / IC50 / Ki: 90-min incubation; for IC50 / Ki: 4 nM BODIPY FL VH032 (5), 2 nM Tb-anti-GST; for Ki: read-out: Ki, pVHL TR-FRET binding assay (Cheng-Prusoff). (TR-FRET usually uses a lanthanide donor and a delayed reading to cut background.)

For a further assay, the target named is VCB (Homo sapiens, UniProt P40337). The settings on record: 10 nM FAM-HIF-1α, 15 nM VCB; read-out: Kd, reported FAM-HIF-1α peptide (19-mer)-based FP assay; cited from earlier work.
Assay [3] concerns the target T1, GST-VCB protein complex. Description: Determination of BODIPY FL VH032 (5) binding Kd to GST-VCB protein complex in a TR-FRET binding assay. The settings on record: for Kd: 2 nM GST-VCB. From the text:
For the BODIPY FL VH032 (5)-mediated pVHL TR-FRET binding assay, a reported TR-FRET assay protocol (Lin, et al. (2014) Development of BODIPY FL vindoline as a novel and high-affinity pregnane X receptor fluorescent probe. Bioconjug Chem 25, 1664-1677) was followed except that an Echo 555 Acoustic Liquid Handler (Labcyte Inc., San Jose, CA) was used to dispense chemicals and BODIPY FL VH032 (5), GST-VCB and Tb-anti-GST antibody were used.
The pVHL TR-FRET binding assay buffer has a formula of 50 mM Tris pH 7.5, 0.1% Triton X-100, 0.01% bovine serum albumin, 1 mM DTT. It was freshly prepared every time before an experiment.
Dilutions of BODIPY FL VH032 (5, 1-to-2 dilutions, a concentration range of 0.06 nM to 500 nM) was incubated with 2 nM Tb-anti-GST along with, group 1: 2 nM GST-VCB+DMSO; group 2: 2 nM GST-VCB+VH298 (2, 30 μM); or group 3: without GST-VCB+DMSO. The TR-FRET signals were monitored every 30 min from 30 min to 300 min with a PHERAstar FS plate reader equipped with a TR-FRET optic module (excitation: 340 nm; emission 1: 520 nm; emission 2: 490 nm). The TR-FRET signals were fitted into GraphPad Prism 8.4.3 software (GraphPad Software; San Diego, CA) using a one-site total binding equation to derive curves for each group.

Assay [4] deals with T1, GST-VCB protein complex. The assay is described as follows: Determination of BODIPY FL VH032 (5) binding Kd to GST-VCB protein complex in a FP binding assay. The settings on record: VH298 30 μM, 1000 nM GST-VCB, 10 nM probe. The procedure:
For the BODIPY FL VH032 (5)-mediated pVHL FP binding assay, the general TR-FRET assay protocol was followed except that the […] antibody was not added and the PHERAstar FS plate reader (BMG Labtech; Durham, NC) was equipped with a FP optic module (Excitation: 485 nm, Emission: 520 nm) to read FP assay signals.
The pVHL FP assay buffer has a formula of 25 mM HEPES pH 7.4, 0.01% Tween-20, 0.5 mM DTT, 0.01% BSA. It was freshly prepared every time before an experiment.
BODIPY FL VH032 (5, 10 nM) was incubated with dilutions of GST-VCB (1-to-2 dilutions, a concentration range of 0.03 nM to 1 μM) along with the DMSO group or VH298 (2, 30 μM) group. In addition, BODIPY FL VH032 (5, 10 nM) was incubated with DMSO only, but without GST-VCB. The FP signals were determined with the PHERAstar FS plate reader. The representative data collected at 90-min incubation time was plotted with the GraphPad Prism software using a one-site total binding equation to derive curves for each group. The binding affinity Kd values were derived from the DMSO with GST-VCB.

Regarding `NCCCCNC(=O)COc1cccc2c1C(=O)N(C1CCC(=O)NC1=O)C2=O` (stereo not drawn), on GST-VCB protein complex [1] (90-min incubation), the “pVHL inhibitory activity in the FP assay” value is listed as “did not show pVHL inhibitory activity”. Moreover, the “pVHL inhibitory activity in the TR-FRET binding assay” value on GST-VCB protein complex [2] is “inactive”.

For `Cc1ncsc1-c1ccc(CNC(=O)[C@@H]2C[C@@H](O)CN2C(=O)[C@@H](NC(=O)OC(C)(C)C)C(C)(C)C)cc1` [BOC-VH032 (8)], the concentration for half-maximal inhibition (IC50) came out at 16300 nM at GST-VCB protein complex [1] (10 nM BODIPY FL VH032 (5), 100 nM GST-VCB, 90-min incubation) and 4900 nM at GST-VCB protein complex [2] (2 nM GST-VCB). The inhibition constant (Ki) on GST-VCB protein complex [1] (10 nM BODIPY FL VH032 (5), 100 nM GST-VCB, 90-min incubation, read-out: Ki, pVHL FP assay (Nikolovska-Coleska method)) turned out to be 8000 nM; at GST-VCB protein complex [2] (2 nM GST-VCB) it was 2100 nM. Moreover, the Kd on VCB was 6500 nM.

Turning to `CC1=CC(C)=[N+]2C1=Cc1ccc(CCC(=O)NCCOCCOCCOCCOCC(=O)NC(C(=O)N3CC(O)CC3C(=O)NCc3ccc(-c4scnc4C)cc3)C(C)(C)C)n1[B-]2(F)F` [BODIPY FL VH032 (5), (2S,4R)-1-4S)-2-(tert-butyl)-21-(5,5-difluoro-7,9-Dimethyl-5H-5Λ^4,6Λ^4-dipyrrolo[1,2-c:2′,1′-f][1,3,2]diazaborinin-3-yl)-4,19-dioxo-6,9,12,15-tetraoxa-3,18-diazahenicosanoyl)-4-hydroxy-N-(4-O-methylthiazol-5-yl)benzyl)pyrrolidine-2-carboxamide], the Kd stood at 3.01 nM on GST-VCB protein complex [3] (90-min incubation, 2 nM Tb-anti-GST); 3.04 nM at GST-VCB protein complex [3] (120-min incubation); 3.01 nM at GST-VCB protein complex [3] (150-min incubation); 2.98 nM at GST-VCB protein complex [3] (180-min incubation); 2.98 nM on GST-VCB protein complex [3] (240-min incubation); 3.04 nM at GST-VCB protein complex [3] (300-min incubation). For the same compound, the “highest TR-FRET signal fold change, 2 nM GST-VCB+DMSO / without GST-VCB+DMSO” value at GST-VCB protein complex [3] (at 3.9 nM BODIPY FL VH032 (5), 90 min) is listed as 16.2 fold. The “highest TR-FRET signal fold change, 2 nM GST-VCB+DMSO / 2 nM GST-VCB+VH-298 (2)” value on GST-VCB protein complex [3] (at 7.8 nM BODIPY FL VH032 (5), 90 min) stood at 15.1 fold.

For `Cc1ncsc1-c1ccc([C@H](C)NC(=O)[C@@H]2C[C@@H](O)CN2C(=O)[C@@H](N)C(C)(C)C)cc1` [Me-VH032 amine (7)], the “concentration at which the compound disturbed the FP assay detection (assay interference)” value on GST-VCB protein complex [1] (FP assay, not observed in TR-FRET) is given as at least 370 nM. Moreover, on GST-VCB protein complex [2] (2 nM GST-VCB), the 50% inhibitory concentration (IC50) was found to be 7900 nM and the Ki was 3400 nM.

At GST-VCB protein complex [2] (2 nM GST-VCB), `Cc1ncsc1-c1ccc(CNC(=O)[C@@H]2C[C@@H](O)CN2C(=O)[C@@H](NC(=O)COCCOCCOCCOCCN)C(C)(C)C)cc1` [VH032-PEG4-amine (10)] displayed a concentration for half-maximal inhibition (IC50) of 5.9 nM.

As to `Cc1ncsc1-c1ccc(CNC(=O)[C@@H]2C[C@@H](O)CN2C(=O)[C@@H](NC(=O)C2(C#N)CC2)C(C)(C)C)cc1` [VH298 (2), (2S,4R)-1-((S)-2-(1-Cyanocyclopropanecarboxamido)-3,3-dimethylbutanoyl)-4-hydroxy-N-(4-(4-methylthiazol-5-yl)benzyl)pyrrolidine-2-carboxamide], at GST-VCB protein complex [1] (VH298 30 μM, 10 nM probe, 100 nM GST-VCB, 90 min), the “FP signal of the positive control” value turned out to be 14.5 mP. Further, the “FP signal, GST-VCB-mediated non-specific interaction” value on GST-VCB protein complex [4] came out at 43.0 mP. Besides, at GST-VCB protein complex [2] (VH298 30 μM, 2 nM GST-VCB, 4 nM probe, all incubation times 30 to 300 min), the “TR-FRET signal of the positive control group” value stood at 278.7±4.5 RTU.

As to `Cc1sc2c(c1C)C(c1ccc(Cl)cc1)=N[C@@H](CC(=O)NCCCCNC(=O)COc1cccc3c1C(=O)N(C1CCC(=O)NC1=O)C3=O)c1nnc(C)n1-2` (stereo partly drawn) [dBET1 (12)], the “pVHL inhibitory activity in the FP assay” value on GST-VCB protein complex [1] (90-min incubation) is “did not show pVHL inhibitory activity”. Also, the “pVHL inhibitory activity in the TR-FRET binding assay” value on GST-VCB protein complex [2] was “inactive”.

One may read the IC50 as the concentration that inhibits the measured activity by half. What is called Ki is a dissociation constant, usually derived from enzyme kinetics or from competition with a known ligand. Usually Kd stands for the constant that tells how readily two partners part at equilibrium.
